{
  "source": "paper PMC12097015",
  "about": "“Development of MDM2‐Targeting PROTAC for Advancing Bone Regeneration” (Advanced Science, 2025)",
  "biological_target": "MDM2 (Homo sapiens, UniProt Q00987)",
  "sequence (Q00987 whole entry, species assumed)": "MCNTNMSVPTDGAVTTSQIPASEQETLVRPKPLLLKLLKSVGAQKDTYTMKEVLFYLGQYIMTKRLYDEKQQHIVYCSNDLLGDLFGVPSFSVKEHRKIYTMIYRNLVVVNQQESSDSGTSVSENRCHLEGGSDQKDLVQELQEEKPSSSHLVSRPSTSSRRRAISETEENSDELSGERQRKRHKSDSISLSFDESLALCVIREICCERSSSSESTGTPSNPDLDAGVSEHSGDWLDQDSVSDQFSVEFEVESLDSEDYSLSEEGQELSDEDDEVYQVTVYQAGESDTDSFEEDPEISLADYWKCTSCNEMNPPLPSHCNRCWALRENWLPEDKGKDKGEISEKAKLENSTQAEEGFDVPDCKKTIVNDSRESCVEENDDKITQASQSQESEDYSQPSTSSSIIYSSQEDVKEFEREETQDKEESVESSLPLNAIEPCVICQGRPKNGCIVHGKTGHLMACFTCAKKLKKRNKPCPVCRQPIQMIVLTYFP",
  "assay": "Microscale thermophoresis (MST) binding assay",
  "design": "made in house; host or cells: E. coli BL21 (DE3)",
  "conditions": "His-Tag MDM2, n = 3, read-out: dissociation constant (Kd)",
  "procedure": "E. coli BL21 (DE3) competent cells transformed with pSPEL870 were used to express MDM2 protein.^[ [27] ^] The recombinant strain was cultured in 500 mL 2XYT at 37 °C until the optical density (OD600 ) reached 0.5. Protein expression was induced by adding 0.2 mM isopropyl β‐D‐1‐thiogalactopyranoside (IPTG; Bioshop, Canada) at 20 °C overnight. […] The protein was purified using Ni‐NTA resin (Qiagen, Germany), according to the manufacturer's protocol. The purified protein was buffer exchanged with phosphate‐buffered saline (PBS, pH 7.4) using a centrifugal filter unit (MWCO: 10 K; Merck Millipore, USA). The protein was stored at –20 °C in PBS with 20% glycerol and 1 mM dithiothreitol (DTT).\nThe His‐Tag MDM2 protein was labeled using a His‐Tag Labeling Kit RED‐tris‐NTA second Generation (NanoTemper, MO‐L018) according to the manufacturer's instructions. […] The final mixtures were transferred to capillaries (NanoTemper, MO‐K022) and the samples were measured using a Monolith NT.115Pico (NanoTemper) instrument (auto LED power; medium MST power). […] The signals were represented as normalized changes in fluorescence (Fnorm ) upon ligand binding. Baseline‐corrected normalized fluorescence (DFnorm ) was obtained from Fnorm values using MO Affinity Analysis, and the dissociation constants (Kd ) were determined by curve fitting (variable slope model) using GraphPad Prism 10.",
  "data": [
    {"smiles": "COc1ccc(C2=N[C@H](c3ccc(Cl)cc3)[C@H](c3ccc(Cl)cc3)N2C(=O)N2CCN(CC(=O)NCCCCCCCCOc3cccc4c3C(=O)N(C3CCC(=O)NC3=O)C4=O)C(=O)C2)c(OC(C)C)c1", "note": "(stereo in doubt) [CL144]", "values": [
      {"measurement": "Kd", "value": 1120, "unit": "nM"}
    ]}
  ]
}
